Experimental data published in ChEMBL document CHEMBL3351354, “From the covalent linkage of drugs to novel inhibitors of ribonucleotide reductase: synthesis and biological evaluation of valproic esters of 3'-C-methyladenosine” (Bioorg Med Chem Lett, 2014).
Active and inactive are the calls of the source. The rule behind the calls is not given here.

Columns and labels:
[1] = Half life in RPMI-1640 medium containing 10% fetal calf serum assessed as compound disappearance by HPLC-DAD-ESI-MS method; type: ADME, Bos taurus; conditions: cattle
HT-29 = test: Growth inhibition of human HT-29 cells after 48 hrs by MTT assay; type: functional, cell-based; conditions: Homo sapiens, HT-29, 48 h; read-out: IC50
[2] = target: T1, Ribonucleotide reductase (Homo sapiens) (UniProt P23921+Q7LG56); test: Inhibition of human recombinant ribonucleotide reductase at 1.2 mM; type: protein-complex assay
MCF7 = test: Growth inhibition of human MCF7 cells after 48 hrs by MTT assay; type: functional, cell-based; conditions: Homo sapiens, MCF7, 48 h; read-out: IC50
[3] = Half life in pH 7.4 isotonic sodium phosphate buffer at 37 degC by HPLC-DAD-ESI-MS method; type: physicochemical
HeLa = test: Growth inhibition of human HeLa cells after 48 hrs by MTT assay; type: functional, cell-based; conditions: Homo sapiens, HeLa, 48 h; read-out: IC50
[4] = target: T1, Ribonucleotide reductase (Homo sapiens); test: Inhibition of ribonucleotide reductase in human HL60 cells assessed as intracellular dNTP pools level at 1.2 mM after 1 hr by HPLC method; type: cell-based; conditions: HL-60
HL-60 [5] = test: Induction of cell cycle arrest in human HL60 cells assessed as accumulation at S phase at 1 mM after 24 hrs by propidium iodide staining based flow cytometry (reference value: 54%); type: functional
HL-60 [6] = test: Induction of cell cycle arrest in human HL60 cells assessed as accumulation at G2M phase at 1 mM after 24 hrs by propidium iodide staining based flow cytometry (reference value: 12%); type: functional
HL-60 [7] = test: Induction of cell cycle arrest in human HL60 cells assessed as accumulation at G1 phase at 1 mM after 24 hrs by propidium iodide staining based flow cytometry (reference value: 32%); type: functional
HL-60 [8] = test: Induction of apoptosis in human HL60 cells after 24 to 48 hrs by acridine orange and ethidium bromide staining based fluorescence microscopy; type: functional, cell-based; conditions: hl-60
K562 = test: Growth inhibition of human K562 cells after 48 hrs by MTT assay; type: functional, cell-based; conditions: Homo sapiens, K562, 48 h; read-out: IC50
[9] = Growth inhibition of human Caco2 cells after 48 hrs by MTT assay; type: functional, cell-based, Caco-2; conditions: Homo sapiens, Caco-2, 48 h; read-out: IC50
[10] = Growth inhibition of human HL60 cells after 48 hrs by MTT assay; type: functional, cell-based, HL-60; conditions: Homo sapiens, HL-60, 48 h; read-out: IC50
HuT78 = test: Growth inhibition of human HUT78 cells after 48 hrs by MTT assay; type: functional, cell-based; conditions: Homo sapiens, HuT78, 48 h; read-out: IC50

half-life [1]: > 72 h
IC50 (HT-29): > 1000 µM
inhibition [2]: Active
IC50 (MCF7): > 1000 µM
half-life [3]: > 72 h
IC50 (HeLa): > 1000 µM
inhibition [4]: Active
IC50 (K562): 500 µM
Compound: CCCC(CCC)C(=O)O[C@H]1[C@H](n2cnc3c(N)ncnc32)O[C@H](CO)[C@@]1(C)O
Activity (HL-60 [5]): 40%
Activity (HL-60 [6]): 9%
Activity (HL-60 [7]): 51%
AC50 (HL-60 [8]): Not Active
IC50 [9]: > 1000 µM
IC50 [10]: 650 µM
IC50 (HuT78): 912 µM
